Patent US20240158370A1, “CK1 alpha AND DUAL CK1 alpha / GSPT1 DEGRADING COMPOUNDS” (Innovo Therapeutics, Inc., priority 2022, published 2024)

What was measured:
[1] = target: T1, CK1α (Homo sapiens, UniProt P48729+Q96SW2); assay: HiBiT degradation assay, CK1α, Procedure A; assay type: cell-based; details: six hours incubation
T1 construct: CSNK1A1-HiBit KI HEK293(LgBit) Cells; host or cells: HEK293(LgBit) knock-in cells
How it was run: (§1)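 Luminescence from HiBiT lytic detection, read after 20 min shaking, gave DC50 and Ymin by 4-parameter fit. Before that, cells (1×10^6 cells/ml, DMEM+10% FBS) sat 6 h at 37° C on 10-point compound series (10 μM–0.005 μM, 0.1% DMSO).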

[2] = target: GSPT1 (Homo sapiens, UniProt P15170+Q96SW2); assay: HiBiT degradation assay, GSPT1, Procedure A; assay type: cell-based; design: HiBit-GSPT1 KI HEK293(LgBit) Cells; host or cells: HEK293(LgBit) knock-in cells; details: six hours incubation
Chain of GSPT1 (P15170 whole entry): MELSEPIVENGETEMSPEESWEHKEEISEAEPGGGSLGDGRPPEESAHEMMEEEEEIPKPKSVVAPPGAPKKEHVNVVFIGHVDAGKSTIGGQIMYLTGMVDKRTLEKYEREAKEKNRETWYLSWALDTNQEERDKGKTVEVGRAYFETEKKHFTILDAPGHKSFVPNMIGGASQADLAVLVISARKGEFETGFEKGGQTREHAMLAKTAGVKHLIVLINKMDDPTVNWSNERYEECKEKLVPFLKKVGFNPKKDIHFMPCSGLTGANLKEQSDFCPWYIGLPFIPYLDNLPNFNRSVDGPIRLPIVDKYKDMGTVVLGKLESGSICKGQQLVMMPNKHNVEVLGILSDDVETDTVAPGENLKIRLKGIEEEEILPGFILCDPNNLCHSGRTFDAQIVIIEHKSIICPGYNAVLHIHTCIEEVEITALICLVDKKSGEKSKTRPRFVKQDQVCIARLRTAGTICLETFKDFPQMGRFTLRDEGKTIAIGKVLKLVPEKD
Chain of GSPT1 (Q96SW2 whole entry): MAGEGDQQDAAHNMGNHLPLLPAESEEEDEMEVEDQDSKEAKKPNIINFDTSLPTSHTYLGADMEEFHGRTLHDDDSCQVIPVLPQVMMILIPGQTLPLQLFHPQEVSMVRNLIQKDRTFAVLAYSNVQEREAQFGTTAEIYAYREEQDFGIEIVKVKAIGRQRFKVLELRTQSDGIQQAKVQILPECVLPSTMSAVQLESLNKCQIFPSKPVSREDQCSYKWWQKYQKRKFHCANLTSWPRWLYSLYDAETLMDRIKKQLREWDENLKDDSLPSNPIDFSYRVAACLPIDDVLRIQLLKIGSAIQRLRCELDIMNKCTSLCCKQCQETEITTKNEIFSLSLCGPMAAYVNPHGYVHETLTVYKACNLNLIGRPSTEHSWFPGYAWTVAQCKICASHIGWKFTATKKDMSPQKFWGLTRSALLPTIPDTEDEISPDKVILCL
Chain of GSPT1 (Q16531 whole entry partner): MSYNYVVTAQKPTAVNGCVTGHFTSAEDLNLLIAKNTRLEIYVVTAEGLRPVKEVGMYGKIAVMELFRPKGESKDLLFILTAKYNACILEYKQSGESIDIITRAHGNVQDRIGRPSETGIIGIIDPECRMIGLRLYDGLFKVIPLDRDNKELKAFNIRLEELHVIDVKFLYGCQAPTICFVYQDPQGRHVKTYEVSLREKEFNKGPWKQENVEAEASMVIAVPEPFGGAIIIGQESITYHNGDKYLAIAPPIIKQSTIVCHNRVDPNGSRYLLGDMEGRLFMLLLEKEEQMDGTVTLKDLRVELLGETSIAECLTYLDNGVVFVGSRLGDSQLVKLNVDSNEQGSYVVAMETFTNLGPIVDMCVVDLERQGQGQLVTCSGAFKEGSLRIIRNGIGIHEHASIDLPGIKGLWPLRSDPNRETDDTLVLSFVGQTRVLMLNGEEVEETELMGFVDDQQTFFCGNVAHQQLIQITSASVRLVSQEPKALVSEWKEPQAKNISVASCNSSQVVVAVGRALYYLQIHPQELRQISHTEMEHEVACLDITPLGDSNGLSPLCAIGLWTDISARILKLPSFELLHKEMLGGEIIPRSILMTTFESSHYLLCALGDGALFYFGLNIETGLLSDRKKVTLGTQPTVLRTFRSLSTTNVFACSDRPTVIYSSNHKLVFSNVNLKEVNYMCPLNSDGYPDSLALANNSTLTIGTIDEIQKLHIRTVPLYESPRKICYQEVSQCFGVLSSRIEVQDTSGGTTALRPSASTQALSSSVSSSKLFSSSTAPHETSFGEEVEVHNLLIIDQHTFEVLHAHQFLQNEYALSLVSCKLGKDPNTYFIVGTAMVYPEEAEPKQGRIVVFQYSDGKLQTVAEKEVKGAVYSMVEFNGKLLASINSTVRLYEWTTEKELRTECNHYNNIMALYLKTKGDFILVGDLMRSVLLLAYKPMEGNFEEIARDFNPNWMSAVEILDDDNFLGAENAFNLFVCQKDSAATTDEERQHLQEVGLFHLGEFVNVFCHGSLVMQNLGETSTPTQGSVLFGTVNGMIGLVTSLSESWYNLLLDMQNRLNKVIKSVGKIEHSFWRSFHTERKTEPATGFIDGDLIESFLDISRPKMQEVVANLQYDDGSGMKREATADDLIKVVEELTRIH
How it was run: as §1

T1 sequence (P48729 whole entry): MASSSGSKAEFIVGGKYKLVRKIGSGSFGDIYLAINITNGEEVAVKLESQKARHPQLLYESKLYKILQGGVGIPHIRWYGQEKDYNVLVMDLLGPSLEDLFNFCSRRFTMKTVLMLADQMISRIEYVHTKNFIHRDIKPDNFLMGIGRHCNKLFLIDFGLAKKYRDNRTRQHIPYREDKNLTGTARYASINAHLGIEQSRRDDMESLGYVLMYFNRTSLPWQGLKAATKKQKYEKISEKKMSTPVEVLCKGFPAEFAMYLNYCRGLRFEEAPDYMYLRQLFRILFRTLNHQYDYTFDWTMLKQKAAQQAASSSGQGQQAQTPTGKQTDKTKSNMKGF
T1 sequence (Q96SW2 whole entry): as the sequence (Q96SW2 whole entry) above
T1 sequence (Q16531 whole entry partner): as the sequence (Q16531 whole entry partner) above

| SMILES | CK1α Ymin [1] | DC50 [1] | DC50 [2] | GSPT1 Ymin [2] |
| --- | --- | --- | --- | --- |
| Cn1cnc(-c2ccc3c(c2)CN(C2CCC(=O)NC2=O)C3=O)c1-c1cccc(C(N)=O)c1 (stereo not shown) [Example 248] | D (D = >10- 25% remaining) | ≥ 25 nM | ≥ 25 nM | E (E = >25-75% remaining) |
| COc1ccc(C)cc1-c1c(-c2ccc3c(c2)CN(C2CCC(=O)NC2=O)C3=O)ncn1C (stereo not shown) [Example 249] | D (D = >10- 25% remaining) | < 25 nM | ≥ 25 nM | F (F = >75-100% remaining) |
| COCc1ccc(-c2c(-c3ccc4c(c3)CN(C3CCC(=O)NC3=O)C4=O)ncn2C)cc1 (stereo not shown) [Example 250] | C (C = 0-10% remaining) | < 25 nM | < 25 nM | E (E = >25-75% remaining) |
| COc1cc(-c2c(-c3ccc4c(c3)CN(C3CCC(=O)NC3=O)C4=O)ncn2C)ccc1C (stereo not shown) [Example 251] | D (D = >10- 25% remaining) | < 25 nM | ≥ 25 nM | F (F = >75-100% remaining) |
| Cc1ccc(-c2c(-c3ccc4c(c3)CN(C3CCC(=O)NC3=O)C4=O)ncn2C)cc1CO (stereo not shown) [Example 252] | D (D = >10- 25% remaining) | < 25 nM | ≥ 25 nM | E (E = >25-75% remaining) |
| COc1ccc(-c2c(-c3ccc4c(c3)CN(C3CCC(=O)NC3=O)C4=O)ncn2C)cc1O (stereo not shown) [Example 253] | C (C = 0-10% remaining) | < 25 nM | < 25 nM | D (D = >10- 25% remaining) |
| Cc1cc(Cl)ccc1-c1c(-c2ccc3c(c2)CN(C2CCC(=O)NC2=O)C3=O)ncn1C (stereo not shown) [Example 254] | E (E = >25-75% remaining) | < 25 nM | < 25 nM | E (E = >25-75% remaining) |
| Cn1cnc(-c2ccc3c(c2)CN(C2CCC(=O)NC2=O)C3=O)c1-c1cccc2ccccc12 (stereo not shown) [Example 255] | E (E = >25-75% remaining) | < 25 nM | < 25 nM | F (F = >75-100% remaining) |
| Cn1cnc(-c2ccc3c(c2)CN(C2CCC(=O)NC2=O)C3=O)c1-c1ccc2ccccc2c1 (stereo not shown) [Example 256] | C (C = 0-10% remaining) | < 25 nM | < 25 nM | E (E = >25-75% remaining) |
| Cn1cnc(-c2ccc3c(c2)CN(C2CCC(=O)NC2=O)C3=O)c1-c1ccc(F)c(Cl)c1 (stereo not shown) [Example 257] | D (D = >10- 25% remaining) | < 25 nM | ≥ 25 nM | F (F = >75-100% remaining) |
| Cn1cnc(-c2ccc3c(c2)CN(C2CCC(=O)NC2=O)C3=O)c1-c1ccc(Cl)cc1F (stereo not shown) [Example 258] | D (D = >10- 25% remaining) | < 25 nM | ≥ 25 nM | E (E = >25-75% remaining) |
| Cn1cnc(-c2ccc3c(c2)CN(C2CCC(=O)NC2=O)C3=O)c1-c1ccc(F)cc1Cl (stereo not shown) [Example 259] | D (D = >10- 25% remaining) | < 25 nM | < 25 nM | E (E = >25-75% remaining) |
| Cn1cnc(-c2ccc3c(c2)CN(C2CCC(=O)NC2=O)C3=O)c1-c1ccc(Cl)c(F)c1 (stereo not shown) [Example 260] | D (D = >10- 25% remaining) | < 25 nM | < 25 nM | F (F = >75-100% remaining) |
| Cn1cnc(-c2ccc3c(c2)CN(C2CCC(=O)NC2=O)C3=O)c1-c1cc(Cl)ccc1F (stereo not shown) [Example 261] | E (E = >25-75% remaining) | < 25 nM | ≥ 25 nM | F (F = >75-100% remaining) |
| Cn1cnc(-c2ccc3c(c2)CN(C2CCC(=O)NC2=O)C3=O)c1-c1cccc(F)c1Cl (stereo not shown) [Example 262] | D (D = >10- 25% remaining) | < 25 nM | ≥ 25 nM | F (F = >75-100% remaining) |
| COc1cc(C#N)ccc1-c1c(-c2ccc3c(c2)CN(C2CCC(=O)NC2=O)C3=O)ncn1C (stereo not shown) [Example 263] | E (E = >25-75% remaining) | ≥ 25 nM | < 25 nM | F (F = >75-100% remaining) |
| CN1Cc2cccc(-c3c(-c4ccc5c(c4)CN(C4CCC(=O)NC4=O)C5=O)ncn3C)c2C1 (stereo not shown) [Example 264] | E (E = >25-75% remaining) | ≥ 25 nM | < 25 nM | E (E = >25-75% remaining) |
| CC(C)Cc1ccc(-c2c(-c3ccc4c(c3)CN(C3CCC(=O)NC3=O)C4=O)ncn2C)cc1 (stereo not shown) [Example 265] | D (D = >10- 25% remaining) | < 25 nM | ≥ 25 nM | F (F = >75-100% remaining) |
| Cn1cnc(-c2ccc3c(c2)CN(C2CCC(=O)NC2=O)C3=O)c1-c1cccc(C(C)(C)C)c1 (stereo not shown) [Example 266] | E (E = >25-75% remaining) | ≥ 25 nM | < 25 nM | F (F = >75-100% remaining) |
| CNC(=O)c1ccc(-c2c(-c3ccc4c(c3)CN(C3CCC(=O)NC3=O)C4=O)ncn2C)cc1 (stereo not shown) [Example 267] | C (C = 0-10% remaining) | ≥ 25 nM | ≥ 25 nM | F (F = >75-100% remaining) |
| CNC(=O)c1cccc(-c2c(-c3ccc4c(c3)CN(C3CCC(=O)NC3=O)C4=O)ncn2C)c1 (stereo not shown) [Example 268] | D (D = >10- 25% remaining) | ≥ 25 nM | ≥ 25 nM | F (F = >75-100% remaining) |
| Cn1cnc(-c2ccc3c(c2)CN(C2CCC(=O)NC2=O)C3=O)c1-c1ccc(Cl)c(C#N)c1 (stereo not shown) [Example 270] | D (D = >10- 25% remaining) | < 25 nM | ≥ 25 nM | F (F = >75-100% remaining) |
| Cn1cnc(-c2ccc3c(c2)CN(C2CCC(=O)NC2=O)C3=O)c1-c1cc(Cl)cc(C#N)c1 (stereo not shown) [Example 271] | E (E = >25-75% remaining) | ≥ 25 nM | < 25 nM | F (F = >75-100% remaining) |
| Cn1cnc(-c2ccc3c(c2)CN(C2CCC(=O)NC2=O)C3=O)c1-c1cc(Cl)ccc1C#N (stereo not shown) [Example 272] | E (E = >25-75% remaining) | < 25 nM | < 25 nM | F (F = >75-100% remaining) |
| COc1ccc(-c2c(-c3ccc4c(c3)CN(C3CCC(=O)NC3=O)C4=O)ncn2C)c(Cl)c1 (stereo not shown) [Example 273] | C (C = 0-10% remaining) | < 25 nM | < 25 nM | E (E = >25-75% remaining) |

Results, then the molecule that gave them:

| CK1α Ymin [1] | DC50 [1] | DC50 [2] | GSPT1 Ymin [2] | SMILES |
| --- | --- | --- | --- | --- |
| E (E = >25-75% remaining) | < 25 nM | ≥ 25 nM | F (F = >75-100% remaining) | COc1ccc(Cl)cc1-c1c(-c2ccc3c(c2)CN(C2CCC(=O)NC2=O)C3=O)ncn1C (stereo not shown) [Example 274] |
| D (D = >10- 25% remaining) | < 25 nM | ≥ 25 nM | F (F = >75-100% remaining) | COc1ccc(Cl)c(-c2c(-c3ccc4c(c3)CN(C3CCC(=O)NC3=O)C4=O)ncn2C)c1 (stereo not shown) [Example 275] |
| C (C = 0-10% remaining) | < 25 nM | < 25 nM | F (F = >75-100% remaining) | COc1ccc(-c2c(-c3ccc4c(c3)CN(C3CCC(=O)NC3=O)C4=O)ncn2C)cc1Cl (stereo not shown) [Example 276] |
| E (E = >25-75% remaining) | < 25 nM | < 25 nM | F (F = >75-100% remaining) | COc1cccc(-c2c(-c3ccc4c(c3)CN(C3CCC(=O)NC3=O)C4=O)ncn2C)c1Cl (stereo not shown) [Example 277] |
| E (E = >25-75% remaining) | < 25 nM | ≥ 25 nM | F (F = >75-100% remaining) | COc1c(Cl)cccc1-c1c(-c2ccc3c(c2)CN(C2CCC(=O)NC2=O)C3=O)ncn1C (stereo not shown) [Example 278] |
| D (D = >10- 25% remaining) | < 25 nM | ≥ 25 nM | F (F = >75-100% remaining) | Cn1cnc(-c2ccc3c(c2)CN(C2CCC(=O)NC2=O)C3=O)c1-c1ccc(C2(C#N)CC2)cc1 (stereo not shown) [Example 279] |
| E (E = >25-75% remaining) | < 25 nM | ≥ 25 nM | F (F = >75-100% remaining) | Cn1cnc(-c2ccc3c(c2)CN(C2CCC(=O)NC2=O)C3=O)c1-c1cccc(C(F)(F)F)c1 (stereo not shown) [Example 280] |
| E (E = >25-75% remaining) | < 25 nM | ≥ 25 nM | F (F = >75-100% remaining) | Cn1cnc(-c2ccc3c(c2)CN(C2CCC(=O)NC2=O)C3=O)c1-c1ccccc1C(F)(F)F (stereo not shown) [Example 282] |
| E (E = >25-75% remaining) | < 25 nM | ≥ 25 nM | F (F = >75-100% remaining) | Cn1cnc(-c2ccc3c(c2)CN(C2CCC(=O)NC2=O)C3=O)c1-c1ccc(Cl)c(Cl)c1 (stereo not shown) [Example 283] |
| E (E = >25-75% remaining) | < 25 nM | ≥ 25 nM | F (F = >75-100% remaining) | Cn1cnc(-c2ccc3c(c2)CN(C2CCC(=O)NC2=O)C3=O)c1-c1cccc(Cl)c1Cl (stereo not shown) [Example 284] |
| E (E = >25-75% remaining) | < 25 nM | < 25 nM | F (F = >75-100% remaining) | Cn1cnc(-c2ccc3c(c2)CN(C2CCC(=O)NC2=O)C3=O)c1-c1cc(Cl)ccc1Cl (stereo not shown) [Example 285] |
| D (D = >10- 25% remaining) | < 25 nM | < 25 nM | E (E = >25-75% remaining) | Cn1cnc(-c2ccc3c(c2)CN(C2CCC(=O)NC2=O)C3=O)c1-c1ccc(Cl)cc1Cl (stereo not shown) [Example 286] |
